pIC50: −log10 of the molar value. Like-named read-outs stand apart in the source and are kept apart here.
Assays:
[1] = test system: human red blood cell AChE; settings: cited from earlier work
[2] = biological target: recombinant human acetylcholinesterase, rHsAChE (Homo sapiens, UniProt P22303); experiment: biochemical
rSmTAChE [3] = biological target: T1, rSmTAChE (Schistosoma mansoni, UniProt A0A3Q0KMM5); experiment: biochemical
rSmTAChE [4] = biological target: T1, rSmTAChE; format: biochemical; settings: for IC50: read-out: IC50 (µM) rSmTAChE; for pIC50: read-out: qAC50 (IC50), rSmTAChE
[5] = test system: newly transformed S. mansoni schistosomula; settings: survival over 3 days; read-out: IC50 against schistosomula; cited from earlier work
S. mansoni worms in vivo = settings: one time 200 mg/kg by oral gavage, four mice, 16–18 days post-drug administration; cited from earlier work
[6] = test system: S. mansoni adult male and female worms; settings: survival over 3 days; read-out: IC50 against adults; cited from earlier work
[7] = read-out: HTS/rSmTAChE Inhibition (Ave, %)
[8] = dose response analysis of Drug Repurposing Hub hits against rHsAChE
[9] = read-out: qAC50 (IC50), rHsAChE
[10] = Table 3, read-out: IC50 (µM) rHsAChE
[11] = read-out: rSmTAChE HTS Inhibition (Ave, %)
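For Inhibition (%) (Average) in this document: mostly 20 µM final but a few compounds at 5 or 10 µM.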
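For Inhibition (%) Replicate A in this document: mostly 20 µM final but a few compounds at 5 or 10 µM.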
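For Inhibition (%) Replicate B in this document: mostly 20 µM final but a few compounds at 5 or 10 µM.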

T1 sequence (A0A3Q0KMM5 27-661 limits assumed): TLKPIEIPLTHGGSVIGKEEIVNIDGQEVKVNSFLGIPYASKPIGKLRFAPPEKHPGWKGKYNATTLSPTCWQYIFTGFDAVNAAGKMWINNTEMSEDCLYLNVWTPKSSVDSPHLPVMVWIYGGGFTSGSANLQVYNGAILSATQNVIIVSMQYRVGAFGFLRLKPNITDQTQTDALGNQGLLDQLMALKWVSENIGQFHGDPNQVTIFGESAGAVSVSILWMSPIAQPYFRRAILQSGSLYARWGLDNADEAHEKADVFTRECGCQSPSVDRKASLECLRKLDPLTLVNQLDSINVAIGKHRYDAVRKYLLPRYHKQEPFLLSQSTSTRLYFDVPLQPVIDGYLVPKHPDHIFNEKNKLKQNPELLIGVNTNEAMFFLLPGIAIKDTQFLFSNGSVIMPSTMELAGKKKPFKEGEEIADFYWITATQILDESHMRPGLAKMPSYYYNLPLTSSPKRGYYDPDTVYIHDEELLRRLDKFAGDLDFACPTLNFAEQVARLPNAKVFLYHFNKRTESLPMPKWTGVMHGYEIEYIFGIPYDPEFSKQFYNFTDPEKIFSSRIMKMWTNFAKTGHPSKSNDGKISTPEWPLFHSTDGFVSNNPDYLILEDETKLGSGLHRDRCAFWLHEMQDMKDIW
recombinant human acetylcholinesterase, rHsAChE, sequence (P22303 32-614): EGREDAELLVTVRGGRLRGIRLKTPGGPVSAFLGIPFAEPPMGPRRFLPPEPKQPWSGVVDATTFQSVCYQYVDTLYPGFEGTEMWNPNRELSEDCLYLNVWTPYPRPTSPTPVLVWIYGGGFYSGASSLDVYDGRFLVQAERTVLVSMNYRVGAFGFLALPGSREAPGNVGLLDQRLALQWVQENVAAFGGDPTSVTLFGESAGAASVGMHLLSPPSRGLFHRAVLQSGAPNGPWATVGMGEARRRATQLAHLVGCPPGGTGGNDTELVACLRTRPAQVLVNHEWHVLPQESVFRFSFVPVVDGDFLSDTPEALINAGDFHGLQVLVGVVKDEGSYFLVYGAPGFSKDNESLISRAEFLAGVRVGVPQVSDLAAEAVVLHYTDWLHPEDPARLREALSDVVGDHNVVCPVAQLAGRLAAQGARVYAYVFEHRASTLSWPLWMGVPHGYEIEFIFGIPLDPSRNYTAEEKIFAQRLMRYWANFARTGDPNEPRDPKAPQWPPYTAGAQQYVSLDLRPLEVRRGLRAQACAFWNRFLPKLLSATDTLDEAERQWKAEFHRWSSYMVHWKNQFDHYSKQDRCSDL

| SMILES | Data Mode (curve class), rHsAChE [2] | Data Mode (curve class), rSmTAChE (rSmTAChE [4]) | Inhibition (%) (Average) (rSmTAChE [3]) | Inhibition (%) Replicate A (rSmTAChE [3]) [%] | Inhibition (%) Replicate B (rSmTAChE [3]) [%] | further results |
| --- | --- | --- | --- | --- | --- | --- |
| COc1cc(NC(C)CCCN)c2ncccc2c1 (stereo not shown) [Primaquine phosphate, reference compound] | decreasing (weakly active) | decreasing |  |  |  | IC33 human red blood cell AChE [1]: 38 µM; IC67 human red blood cell AChE [1]: 247 µM; inhibition at 20 µM (rSmTAChE [3]; [7]): 73.7%; SI (Hs/Sm) (rSmTAChE [4]): 2.21 |
| Nc1nc(NCC2CCC(CNS(=O)(=O)c3cccc4ccccc34)CC2)nc2ccccc12 (stereo not shown) [CGP-71683, reference compound] | decreasing (weakly active) | decreasing | 61.37 | 61.71 | 61.03 | pIC50 [5]: ~6.00; worm burden compared to the controls (S. mansoni worms in vivo): no differences in worm burden; IC50 ([2]; read-out: IC50 (µM) rHsAChE): > 19.5 µM; HTS/rSmTAChE Inhibition (Ave, %) (rSmTAChE [3]; 5 µM): 61.37%; SI (Hs/Sm) (rSmTAChE [4]): 8.82; fold greater potency/selectivity for SmTAChE vs. HsAChE (Selectivity Index) (rSmTAChE [4]): about 10 fold; IC50 (rSmTAChE [4]): 2.21 µM; pIC50 [6]: ~5.70 |
| N#C[C@H]1[C@@H](c2ccc(C#CC3CC3)cc2)[C@@H](CO)N1C(=O)Cc1ccccn1 [BRD-K68325500-004-02-0] |  |  | 64.83 | 63.64 | 66.02 | rHsAChE Data Mode [2]: inactive; rSmTAChE Data Mode (rSmTAChE [4]): inactive |
| O=C(C[C@@H]1C[C@@H]2c3cc(NC(=O)Nc4ccccc4)ccc3O[C@@H]2[C@@H](CO)O1)NC1CCCC1 [BRD-K74918080-001-01-0] |  |  | 91.31 | 92.86 | 89.77 | rHsAChE Data Mode [2]: inactive; rSmTAChE Data Mode (rSmTAChE [4]): decreasing (weakly active) |
| COc1ccc(NC(=O)Nc2ccc3c(c2)[C@@H]2C[C@H](CC(=O)NCC4CC4)O[C@@H](CO)[C@@H]2O3)cc1 [BRD-K17285234-001-01-9] |  |  | 89.37 | 90.41 | 88.34 | rHsAChE Data Mode [2]: inactive; rSmTAChE Data Mode (rSmTAChE [4]): decreasing (weakly active) |
| CC(C)Oc1ccc(-c2nn([C@@H](C)c3oc4ccc(F)cc4c(=O)c3-c3cccc(F)c3)c3ncnc(N)c23)cc1F [BRD-K52579889-001-01-9] | inactive | decreasing (weakly active) | 65.60 | 66.50 | 64.70 | pIC50 (rSmTAChE [4]): < 4.42 |
| Cc1cn2nc([C@@H]3CCCCN3C(=O)c3cc(Cl)ccc3NS(C)(=O)=O)cc2nc1N1CC[C@H](N)C1 [Presatovir, reference compound] |  | decreasing |  |  |  | Data Mode (curve class), rHsAChE [2, 8]: decreasing (weakly active); inhibition at 20 µM (rSmTAChE [3]; [7]): 66.9% |
| CCCCC/C=C\C/C=C\C/C=C\C/C=C\CCCC(=O)Nc1ccc(O)cc1 [BRD-K55462201-001-07-3] | decreasing | inactive | 74.15 | 71.40 | 76.90 | pIC50 [2, 9]: 4.65 |
| COc1ccc(-c2ccc3ncc4c(c3c2)n(-c2ccc(N3CCNCC3)c(C(F)(F)F)c2)c(=O)n4C)cn1 [NVP-BGT226, reference compound] |  | decreasing (weakly active) |  |  |  | SI (Sm/Hs) [2]: 2.81; IC50 [2, 10]: > 13.5 µM; Data Mode (curve class), rHsAChE [2, 8]: decreasing (weakly active); inhibition at 10 µM (rSmTAChE [3]; [11]): 84.3% |
| Clc1ccc(CSC(Cn2ccnc2)c2ccc(Cl)cc2Cl)cc1 (stereo not shown) [BRD-A70649075-008-30-8] | decreasing (weakly active) | decreasing (weakly active) | 65.58 | 67.22 | 63.95 | pIC50 [2, 9]: < 4.42; pIC50 (rSmTAChE [4]): < 4.42 |
| COc1ccc2cc(-c3cc(-c4cc(Cl)cc(Cl)c4)nn3[C@@H](C)c3ccc(C(=O)NCCC(=O)O)cc3)ccc2c1 [MK-0893, reference compound] |  | decreasing |  |  |  | IC50 (µM) rHsAChE ([2]; Table 1, Inactive = inactive at the maximum tested concentration (40 µM)): Inactive *; inhibition of rHsAChE, result in words ([2]; dose–response, up to 40 µM): no inhibition detected; inhibition at 20 µM (rSmTAChE [3]; [7]): 88.7% |
| CC(C)(C)[S@@+]([O-])N1Cc2cc(C(=O)N3CCCCC3)nc(-c3cccc(-c4ccccc4F)c3)c2[C@H]1CCO [BRD-K19167425-001-01-6] |  |  | 62.31 | 62.60 | 62.02 | rHsAChE Data Mode [2]: inactive; rSmTAChE Data Mode (rSmTAChE [4]): decreasing (weakly active) |
| O=C(NC(=O)c1c(F)cccc1F)Nc1cc(Cl)c(OC(F)(F)C(F)C(F)(F)F)cc1Cl (stereo not shown) [Lufenuron, reference compound] | decreasing | decreasing (weakly active) |  |  |  | IC50 ([2]; IC50 (µM) rHsAChE): 12 µM; pIC50 ([2]; qAC50 (IC50), rHsAChE): 4.92; inhibition at 20 µM (rSmTAChE [3]; [11]): 92.6% |
| O=C(O)Cn1nnc(-c2cc(N3CCC(Oc4cc(F)ccc4Br)CC3)no2)n1 [MK-8245, reference compound] |  | decreasing |  |  |  | SI (Sm/Hs) [2]: 4.71; IC50 [2, 10]: 7.93 µM; Data Mode (curve class), rHsAChE [2, 8]: decreasing; inhibition at 20 µM (rSmTAChE [3]; [11]): 71.5% |
| COc1ccc(NC(=O)Nc2ccc3c(c2)[C@H]2C[C@@H](CC(=O)NCC(F)(F)F)O[C@@H](CO)[C@H]2O3)cc1 [BRD-K54729370-001-01-4] |  |  | 90.84 | 91.00 | 90.69 | rHsAChE Data Mode [2]: inactive; rSmTAChE Data Mode (rSmTAChE [4]): inactive |
| CCCCCCCC/C=C\CCCCCCCC(=O)NCCc1ccc(O)c(O)c1 [OLDA, reference compound] | decreasing (weakly active) | decreasing |  | 93.41 | 95.51 | SI (Sm/Hs) [2]: 2.67; IC50 ([2]; read-out: IC50 (µM) rHsAChE): > 13.5 µM; rSmTAChE HTS Inhibition (Ave, %) (rSmTAChE [3]; 20 µM): 94.46%; IC50 (rSmTAChE [4]): 36.1 µM |
| Clc1ccc(C(c2ccccc2Cl)C(Cl)Cl)cc1 (stereo not shown) [BRD-A31204924-001-14-2] | decreasing (weakly active) | inactive | 71.30 | 71.94 | 70.66 | pIC50 [2, 9]: < 4.42 |
| CC1(COc2ccc3c(c2)ncn3-c2ccc3cccc(N4CCC(N)CC4)c3n2)COC1 [Crenolanib, reference compound] |  | decreasing (weakly active) |  |  |  | SI (Sm/Hs) [2]: 1.97; IC50 [2, 10]: 9.91 µM; Data Mode (curve class), rHsAChE [2, 8]: decreasing; inhibition at 20 µM (rSmTAChE [3]; [11]): 64.5% |
| O=c1sn(-c2cccc3ccccc23)c(=O)n1Cc1ccccc1 [BRD-K81330143-001-04-8] | inactive | inactive | 88.72 | 89.17 | 88.27 |  |
| Oc1cc(Cl)ccc1Oc1ccc(Cl)cc1Cl [Triclosan, reference compound] | decreasing (weakly active) | decreasing |  |  |  | inhibition at 20 µM (rSmTAChE [3]; [7]): 68%; SI (Hs/Sm) (rSmTAChE [4]): 5.78 |
| C/C=C/c1cccc(-c2nc(C(=O)NCc3ccc(OC)cc3)cc3c2[C@@H](CCO)N([S@+]([O-])C(C)(C)C)C3)c1 [BRD-K73104592-001-03-5] |  |  | 64.19 | 65.92 | 62.45 | rHsAChE Data Mode [2]: inactive; rSmTAChE Data Mode (rSmTAChE [4]): inactive |
